These results are taken from patent US5843941A, “Ras farnesyl transferase inhibitors” (Genentech, Inc., priority 1994, dated 1998).

The target in one assay is CAAX farnesyltransferase (Rattus norvegicus, UniProt Q02293+Q04631). The experiment in a line: In vitro inhibition of CAAX farnesyltransferase. Format: biochemical. More on the design: purified to homogeneity from rat brain homogenates; from tissue; host or cells: rat brain; alternatively recombinant enzyme from a baculovirus expression system. The conditions noted are these: Table D. The essentials: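 Native or recombinant (baculovirus-infected cells, Q-Sepharose purified) farnesyltransferase incubated 30 min at 37 °C. [3H]farnesyl transfer to p21H-ras measured by SDS/trichloroacetic acid precipitation, nitrocellulose filtration and scintillation counting.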

For assay [1], the system named is farnesylated proteins F1, F2 and F3 in Met18b-2 cells. The experiment in a line: Inhibition of intracellular farnesylation in intact Met18b-2 cells, Triton-soluble proteins F1, F2, F3. Format: cell-based, Chinese hamster. The conditions noted are these: for EC90: Cricetulus griseus, read-out: EC 90% "B isomer". The text has this:
To study farnesylation in intact cells we used Met18b-2 cells, a line of Chinese hamster ovary (CHO) cells that takes up [3H]mevalonate efficiently (see Faust, J., and Krieger, M. J. Biol. Chem. 262, 1966 (1987)) owing to the production of a mevalonate transport protein (see Kim, C. M., Goldstein, J. L., Brown, M. S. J. Biol. Chem. 267, 23113 (1992)). The [3H]mevalonate is converted by the cells into [3H]farnesyl pyrophosphate and [3H]geranylgeranyl pyrophosphate, which are then attached to proteins (Kim, C. M., Goldstein, J. L., Brown, M. S. J. Biol. Chem. 267, 23113 (1992)). In the assay, stock cultures of Met18b-2 cells were seeded at a density of 3-105 cells per 60 mm dish in 3 ml of medium A (Dulbecco's modified Eagle medium/Ham's F12 medium (1:1, v/v) containing 100 U/ml penicillin and 100 μg/ml streptomycin) supplemented with 5% (v/v) fetal calf serum (FCS). On day 3, each monolayer was refed with 1 ml medium A supplemented with 1% FCS (dialyzed against 0.15 M NaCl). At this point the cells were treated with 100 μM compactin (see Brown, M. S., Faust, J. R., Goldstein, J. L., Kaneko, I., and Endo, A. J. Biol. Chem. 253, 1121 (1978)) which blocks the synthesis of unlabeled mevalonate within the cells. Each compound was dissolved at 25 mM in DMSO/10 mM DTT immediately before use and 10 μl of this solution added directly. After 2 hr incubation at 37° C., each monolayer received 100 μCi [3H]mevalonate (60 Ci/mmol, American Radiolabeled Chemicals, Inc.) added in 100 μl of the medium A, and the incubation continued for 4 hr. The cells were harvested by rinsing three times with 3 ml of 50 mM Tris-HCl/0.15 M NaCl (pH 7.5). 300 μl of lysis buffer (0.5X Dulbecco's phosphate-buffered saline containing 1% Triton X-100, 5 μg/ml leupeptin, 5 μg/ml pepstatin, 0.5 mM phenylmethylsulfonyl fluoride, and 0.05 U/ml aprotinin) was added to each monolayer. After incubation on ice for 5 mon, the lysates were centrifuged 30 sec in a microfuge at 12,000 g. The resulting supernatant was tranferred to a new tube, and each pellet was resuspended in 60 μl of lysis buffer. Protein concentrations were determined using the BCA protein assay reagent (Pierce) according to the manufacturer's instructions. Detergent-soluble (supernatant) and -insoluble (pellet) samples were mixed with 2X SDS sample buffer (see Laemmli, U. K. Nature 227, 680 (1970)) and heated at 95° C. for 5 min before electrophoresis. Each lane contained 90 μg protein, and was run on a 12.5% SDS-polyacrylamide gel. The gel was dried, treated with ENTENSIFY (NEN-DuPont), and exposed to Kodak XOMAT-AR film for 9 h at -80° C. to allow visualization of all prenylated proteins. Migration of [14C]methylated molecular weight standards (Amersham) were used as markers.
The results of this assay are shown in FIG. 3, using a final concentration of 250 μM for each inhibitor. […] As shown in the figure, none of the control peptides or control benzodiazepine-peptideomimetics altered the prenylation of proteins in intact cells.
Using the same cells and procedures followed above for Example 125, we measured the dose dependence upon the inhibition of farnesylation in intact cells. […] Compound 37B inhibited the famesylation of F1-3 detectably at 10 μM, and almost completely at 25 μM.
In this manner, it is possible to obtain data regarding the comparative potency of these inhibitors upon the level of intracellular farnesylation. We have chosen to report the EC90% values for these inhibitors as the concentration required for a reduction in the Triton- soluble labelling (denoted F-1, F-2, and F-3) to 90% of control cells (untreated).

Where [2] appears, read: diastereomer B, read-out: EC50 (μM) "B".
Where [3] appears, read: diastereomer A, read-out: EC50 (μM) "A".

Molecules are shown by their SMILES. Where two headings read alike, the source gives them in different places.

What is called EC50 is the concentration that produces a half-maximal response.

Chain of CAAX farnesyltransferase (Q02293 whole entry, one chain of several): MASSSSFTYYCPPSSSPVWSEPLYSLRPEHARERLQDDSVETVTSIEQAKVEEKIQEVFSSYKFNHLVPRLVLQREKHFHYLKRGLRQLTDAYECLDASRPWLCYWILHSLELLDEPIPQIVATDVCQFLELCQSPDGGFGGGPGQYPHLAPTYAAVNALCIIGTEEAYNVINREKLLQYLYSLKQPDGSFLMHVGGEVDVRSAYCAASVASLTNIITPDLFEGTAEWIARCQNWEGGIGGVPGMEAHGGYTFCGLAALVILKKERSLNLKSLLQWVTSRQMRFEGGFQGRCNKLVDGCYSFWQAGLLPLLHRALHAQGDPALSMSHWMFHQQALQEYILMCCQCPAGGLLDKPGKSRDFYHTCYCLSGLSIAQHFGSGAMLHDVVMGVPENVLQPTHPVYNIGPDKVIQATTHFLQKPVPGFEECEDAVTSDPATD

Consider `COC(=O)c1cccc(CN2C(=O)C(N(C)C(=O)[C@@H](N)CSSC(C)(C)C)N=C(c3ccccc3)c3cc(Cl)ccc32)c1` (stereo partly drawn) [compound 99, N-[[3-[(2-amino-3-tert-butylthiomercapto-1-oxopropyl)methylamino]-2,3-dihydro-2-oxo-5-phenyl-7-chloro-1H-1,4-benzodiazepin-1-yl]methyl]-3-carboxymethylbenzene], for which the EC50 on CAAX farnesyltransferase (setting [2]) was found to be 0.38 µM. Further, the EC90 in assay [1] is 30 µM.
As to `CN(C(=O)[C@@H](N)CSSC(C)(C)C)C1N=C(c2ccccc2)c2cc(Cl)ccc2N(CC(=O)N[C@@H](Cc2ccccc2)C(=O)OC2CCCCC2)C1=O` (stereo partly drawn) [compound 120, N-[[3-[(2-amino-3-tert-butylthiomercapto-1-oxopropyl)methylamino]-2,3-dihydro-2-oxo-5-phenyl-7-chloro-1H-1,4-benzodiazepin-1-yl]acetyl]-L-phenylalanine cyclohexyl ester], the EC50 was over 3 µM on CAAX farnesyltransferase (EC50 (μM) "A", diastereomer A) and over 3 µM on CAAX farnesyltransferase (EC50 (μM) "B", diastereomer B). In addition, the EC90 in assay [1] stood at 5 µM.
Consider `CN(C(=O)[C@@H](N)CS)C1N=C(c2ccccc2)c2cc(Cl)ccc2N(Cc2ccc(C#N)cc2)C1=O` (stereo partly drawn) [compound 101, N-[[3-[(2-amino-3-mercapto-1-oxopropyl)methylamino]-2,3-dihydro-2-oxo-5-phenyl-7-chloro-1H-1,4-benzodiazepin-1-yl]methyl]4-benzonitrile], for which the values for the EC50 on CAAX farnesyltransferase (setting [3]) and at CAAX farnesyltransferase (setting [2]) were 3 µM and 0.0009 µM, respectively. For the same compound, the EC90 in assay [1] worked out at 20 µM.
Regarding `CSCC[C@H](NC(=O)CN1C(=O)C(N(C)C(=O)[C@@H](N)CSSC(C)(C)C)N=C(c2ccccc2)c2ccccc21)C(=O)OC1CCCCC1` (stereo partly drawn) [compound 112, N-[[3-[(2-amino-3-tert-butylthiomercapto-1-oxopropyl)methylamino]-2,3-dihydro-2-oxo-5-phenyl-1H-1,4-benzodiazepin-1-yl]acetyl]-L-methionine cyclohexyl ester], the EC50 at CAAX farnesyltransferase (setting [2]) was 0.2 µM. In addition, in assay [1], the EC90 was 4 µM.
`CN(C(=O)[C@@H](N)CSSC(C)(C)C)C1N=C(c2ccccc2)c2cc(Cl)ccc2N(CC(=O)N[C@@H](Cc2ccccc2)c2nnn[nH]2)C1=O` (stereo partly drawn) [compound 119, N-[[3-[(2-amino-3-tert-butylthiomercapto-1-oxopropyl)methylamino]-2,3-dihydro-2-oxo-5-phenyl-7-chloro-1H-1,4-benzodiazepin-1-yl]acetyl]-L-phenylalanine tetrazole]: the EC50 at CAAX farnesyltransferase (setting [3]) was over 3 µM; at CAAX farnesyltransferase (setting [2]), 0.017 µM. For the same compound, the EC90 in assay [1] was 30 µM.
In the case of `CC(C)C[C@H](NC(=O)CN1C(=O)C(N(C)C(=O)[C@@H](N)CSSC(C)(C)C)N=C(c2ccccc2)c2cc(Cl)ccc21)c1nnn[nH]1` (stereo partly drawn) [compound 114, N-[[3-[(2-amino-3-tert-butylthiomercapto-1-oxopropyl)methylamino]-2,3-dihydro-2-oxo-5-phenyl-7-chloro-1H-1,4-benzodiazepin-4-yl]acetyl]-L-leucine tetrazole], on CAAX farnesyltransferase (setting [2]), the EC50 came to 0.12 µM. Also, the EC90 in assay [1] is 30 µM.
For the compound `CCOC(=O)[C@H](CCSC)NC(=O)CN1C(=O)C(N(C)C(=O)C2CSC(C)N2)N=C(c2ccccc2)c2ccccc21` (stereo partly drawn) [compound 109, N-[[3-[(2-methylthiazolidine-4-carboxyl)methylamino]-2,3-dihydro-2-oxo-5-phenyl-1H-1,4-benzodiazepin-1-yl]acetyl]-L-methionine ethyl ester], the EC50 at CAAX farnesyltransferase (setting [3]) amounted to 3.1 µM; at CAAX farnesyltransferase (setting [2]), 0.1 µM. In addition, the EC90 in assay [1] turned out to be 10 µM.
With `CSCC[C@H](NC(=O)CN1C(=O)C(N(C)C(=O)[C@@H](N)CS)N=C(c2ccccc2)c2ccccc21)C(N)=O` (single isomer, unassigned) [33B, N-[[3-[(2-amino-3-mercapto-1-oxopropyl)methylamino]-2,3-dihydro-2-oxo-5phenyl-1H-1,4-benzodiazepin-1-yl]acetyl]-L-methionine amide], the “relative potency in intact cells” value in assay [1] (dose dependence, FIG. 4, compared with 27B and 37B) was “of intermediate potency”.
For `CSCC[C@H](NC(=O)CN1C(=O)C(N(C)C(=O)[C@@H](N)CSSC(C)(C)C)N=C(c2ccccc2)c2cc(Cl)ccc21)C(=O)OC1CCCCC1` (stereo partly drawn) [compound 111, N-[[3-[(2-amino-3-tert-butylthiomercapto-1-oxopropyl)methylamino]-2,3-dihydro-2-oxo-5-phenyl-7-chloro-1H-1,4-benzodiazepin-1-yl]acetyl]-L-methionine cyclohexyl ester], the EC50 is over 3 µM at CAAX farnesyltransferase (setting [3]) and 1.4 µM on CAAX farnesyltransferase (setting [2]). Moreover, the EC90 in assay [1] is 2 µM.
In the case of `COC(=O)c1cccc(CN2C(=O)C(N(C)C(=O)[C@@H]3CSC(C)N3)N=C(c3ccccc3)c3cc(Cl)ccc32)c1` (stereo partly drawn) [compound 100, N-[[3-[(2-methylthiazolidine-4-carboxyl)methylamino]-2,3-dihydro-2-oxo-5-phenyl-7-chloro-1H-1,4-benzodiazepin-1-yl]methyl]-3-carboxymethylbenzene], the EC50 at CAAX farnesyltransferase (setting [3]) was 0.52 µM; at CAAX farnesyltransferase (setting [2]), 0.034 µM. In assay [1], the EC90 was found to be 30 µM.
With `CN(C(=O)[C@@H](N)CSSC(C)(C)C)C1N=C(c2ccccc2)c2ccccc2N(CC(=O)N[C@@H](Cc2ccccc2)C(=O)OC2CCCCC2)C1=O` (stereo partly drawn) [compound 117, N-[[3-[(2-amino-3-tert-butylthiomercapto-1-oxopropyl)methylamino]-2,3-dihydro-2-oxo-5-phenyl-1H-1,4-benzodiazepin-1-yl]acetyl]-L-phenylalanine cyclohexyl ester], on CAAX farnesyltransferase (EC50 (μM) "B", diastereomer B), the EC50 was 1.6 µM. For the same compound, the EC90 in assay [1] is 3 µM.
Take `CSCC[C@H](NC(=O)CN1C(=O)C(N(C)C(=O)[C@@H](N)CSSC(C)(C)C)N=C(c2ccccc2)c2cc(Cl)ccc21)c1nnn[nH]1` (stereo partly drawn) [compound 116, N-[[3-[(2-amino-3-tert-butylthiomercapto-1-oxopropyl)methylamino]-2,3-dihydro-2-oxo-5-phenyl-7-chloro-1H-1,4-benzodiazepin-1-yl]acetyl]-L-methionine tetrazole]: the half-maximal effective concentration (EC50) was over 3 µM on CAAX farnesyltransferase (setting [3]) and 0.03 µM at CAAX farnesyltransferase (setting [2]). For the same compound, the EC90 in assay [1] came out at 60 µM.
`CN(C(=O)[C@@H](N)CS)C1N=C(c2ccccc2)c2cc(Cl)ccc2N(Cc2ccc(F)cc2)C1=O` (stereo partly drawn) [compound 108, N-[[3-[(2-amino-3-mercapto-1-oxopropyl)methylamino]-2,3-dihydro-2-oxo-5-phenyl-7-chloro-1H-1,4-benzodiazepin-1-yl]methyl]-4-fluorobenzene]: the EC50 at CAAX farnesyltransferase (setting [3]) and at CAAX farnesyltransferase (setting [2]) was 0.0018 µM throughout. Besides, the EC90 in assay [1] was 50 µM.
`CN(C(=O)[C@@H](N)CSSC(C)(C)C)C1N=C(c2ccccc2)c2cc(Cl)ccc2N(CC(=O)N[C@@H](Cc2ccccc2)C(N)=O)C1=O` (stereo partly drawn) [compound 115, N-[[3-[(2-amino-3-tert-butylthiomercapto-1-oxopropyl)methylamino]-2,3-dihydro-2-oxo-5-phenyl-7-chloro-1H-1,4-benzazepin-1-yl]acetyl]-L-phenylalanine amide]: the figures for the concentration for a half-maximal effect (EC50) at CAAX farnesyltransferase (setting [3]) and on CAAX farnesyltransferase (setting [2]) were over 3 µM and 0.1 µM, respectively. Also, the EC90 in assay [1] came out at 50 µM.
